Assay results as given in publication PMC6480460, “Derivatives of the β-Crinane Amaryllidaceae Alkaloid Haemanthamine as Multi-Target Directed Ligands for Alzheimer’s Disease” (Molecules, 2019).

Tests used:
hAChE = hAChE (Homo sapiens, UniProt P22303); assay: biochemical; assay type: biochemical; conditions: for IC50: mean ± SEM of three independent measurements, each in triplicate; for SI for hAChE: selectivity index, ratio hBuChE IC50/hAChE IC50
Method: (§1) The hAChE and hBuChE activities were determined using a modified method of Ellman with acetylthiocholine iodide (ATChI) and butyrylthiocholine iodide (BuTChI) as substrates, respectively.

hBuChE = hBuChE (Homo sapiens, UniProt P06276); assay: biochemical; assay type: biochemical; conditions: mean ± SEM of three independent measurements, each in triplicate; read-out: hBuChE IC50
Method: as §1

[1] = system: Jurkat (acute T cell leukemia); assay: WST-1 cytotoxicity assay, Jurkat; assay type: cell-based; conditions: Homo sapiens, c = 10 μM, 48 h, percent of proliferation of untreated control cells
Excerpt: (§2) Selected human tumor and non-tumor cell lines {Jurkat (acute T cell leukemia), MOLT-4 (acute lymphoblastic leukemia), A549 (lung carcinoma), HT-29 (colorectal adenocarcinoma), PANC-1 (pancreas epithelioid carcinoma), A2780 (ovarian carcinoma), HeLa (cervix adenocarcinoma), MCF-7 (breast adenocarcinoma), SAOS-2 (osteosarcoma) and MRC-5 (normal lung fibroblasts)} were purchased from either ATCC (Manassas, VA, USA) or Sigma-Aldrich (St. Louis, MO, USA) and cultured according to the provider’s culture method guidelines. […] Cells in the maximum range of either 10 passages for primary cell line (MRC-5), or in the maximum range of 20 passages for cancer cell lines (Jurkat, MOLT-4, A549, HT-29, PANC-1, A2780, HeLa, MCF-7 and SAOS-2) and in an exponential growth phase were used for this study.
(§3) The WST-1 (Roche, Mannheim, Germany) reagent was used to determine the cytostatic effect of the test compounds. WST-1 is designed for the spectrophotometric quantification of cell proliferation, growth, viability and chemosensitivity in cell populations using a 96-well-plate format (Sigma, St. Louis, MO, USA). The principle of WST-1 is based on photometric detection of the reduction of tetrazolium salt to a colored formazan product. The cells were seeded at a previously established optimal density (30,000 Jurkat, 25,000 MOLT-4, 500 A549, 1500 HT-29, 2000 PANC-1, 5000 A2780, 500 HeLa, 1500 MCF-7, 2000 SAOS-2 and 2000 MRC-5 cells/well) in 100 µL of culture medium, and adherent cells were allowed to reattach overnight. Thereafter, the cells were treated with 100 µL of either corresponding alkaloids or doxorubicin stock solutions to obtain the desired concentrations and incubated in 5% CO2 at 37 °C. WST-1 reagent diluted 4-fold with PBS (50 µL) was added 48 h after treatment. Absorbance was measured after 3 h incubation with WST-1 at 440 nm. The measurements were performed in a Tecan Infinite M200 spectrometer (Tecan Group, Männedorf, Switzerland). All experiments were performed at least three times with triplicate measurements at each drug concentration per experiment. The viability was quantified as described previously according to the following formula: (%) viability = (Asample − Ablank)/(Acontrol − Ablank) × 100, where A is the absorbance of the employed WST-1 formazan measured at 440 nm. The viability of the treated cells was normalized to the viability of cells treated with 0.1% DMSO (Sigma-Aldrich) as a vehicle control.

[2] = system: MOLT-4 (acute lymphoblastic leukemia); assay: WST-1 cytotoxicity assay, MOLT-4; assay type: cell-based; conditions: Homo sapiens, c = 10 μM, 48 h, percent of proliferation of untreated control cells, read-out: Cell proliferation, MOLT-4
Excerpt: as §2, §3

A549 (lung carcinoma) = assay: WST-1 cytotoxicity assay, A549; assay type: cell-based; conditions: Homo sapiens, c = 10 μM, 48 h, percent of proliferation of untreated control cells, read-out: Cell proliferation, A549
Excerpt: as §2, §3

[3] = system: HT-29 (colorectal adenocarcinoma); assay: WST-1 cytotoxicity assay, HT-29; assay type: cell-based; conditions: Homo sapiens, c = 10 μM, 48 h, percent of proliferation of untreated control cells, read-out: Cell proliferation, HT-29
Excerpt: as §2, §3

[4] = system: PANC-1 (pancreas epithelioid carcinoma); assay: WST-1 cytotoxicity assay, PANC-1; assay type: cell-based; conditions: Homo sapiens, c = 10 μM, 48 h, percent of proliferation of untreated control cells, read-out: Cell proliferation, PANC-1
Excerpt: as §2, §3

[5] = system: A2780 (ovarian carcinoma); assay: WST-1 cytotoxicity assay, A2780; assay type: cell-based; conditions: Homo sapiens, c = 10 μM, 48 h, percent of proliferation of untreated control cells, read-out: Cell proliferation, A2780
Excerpt: as §2, §3

[6] = system: HeLa (cervix adenocarcinoma); assay: WST-1 cytotoxicity assay, HeLa; assay type: cell-based; conditions: Homo sapiens, c = 10 μM, 48 h, percent of proliferation of untreated control cells, read-out: Cell proliferation, HeLa
Excerpt: as §2, §3

[7] = system: MCF-7 (breast adenocarcinoma); assay: WST-1 cytotoxicity assay, MCF-7; assay type: cell-based; conditions: Homo sapiens, MCF7; c = 10 μM, 48 h, percent of proliferation of untreated control cells; read-out: Cell proliferation, MCF-7
Excerpt: as §2, §3

SAOS-2 (osteosarcoma) = assay: WST-1 cytotoxicity assay, SAOS-2; assay type: cell-based; conditions: Homo sapiens, c = 10 μM, 48 h, percent of proliferation of untreated control cells, read-out: Cell proliferation, SAOS-2
Excerpt: as §2, §3

[8] = system: MRC-5 (normal lung fibroblasts); assay: WST-1 cytotoxicity assay, MRC-5; assay type: cell-based; conditions: Homo sapiens, MRC5; c = 10 μM, 48 h, percent of proliferation of untreated control cells; read-out: Cell proliferation, MRC-5
Excerpt: as §2, §3

in vitro = conditions: pig, PAMPA, PAMPA-BBB Permeability (Pe)
Method: The PAMPA assay was performed as previously described.

hAChE, sequence (P22303 32-614): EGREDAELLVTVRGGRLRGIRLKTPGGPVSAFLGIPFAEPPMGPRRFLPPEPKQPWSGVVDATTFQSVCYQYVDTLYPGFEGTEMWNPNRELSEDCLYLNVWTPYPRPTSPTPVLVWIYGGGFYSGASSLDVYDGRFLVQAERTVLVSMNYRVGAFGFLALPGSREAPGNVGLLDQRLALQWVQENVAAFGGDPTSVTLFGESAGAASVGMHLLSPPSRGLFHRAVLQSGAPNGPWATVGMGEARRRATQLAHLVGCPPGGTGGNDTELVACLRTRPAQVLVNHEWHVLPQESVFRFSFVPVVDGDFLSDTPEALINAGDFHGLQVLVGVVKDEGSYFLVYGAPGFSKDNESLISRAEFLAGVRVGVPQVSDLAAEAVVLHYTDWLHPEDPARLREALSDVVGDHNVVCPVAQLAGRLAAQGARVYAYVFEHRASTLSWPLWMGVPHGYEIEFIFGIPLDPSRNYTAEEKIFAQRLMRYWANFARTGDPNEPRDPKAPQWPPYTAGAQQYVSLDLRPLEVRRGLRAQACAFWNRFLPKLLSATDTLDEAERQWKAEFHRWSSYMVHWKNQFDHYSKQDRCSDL
hBuChE, sequence (P06276 29-602): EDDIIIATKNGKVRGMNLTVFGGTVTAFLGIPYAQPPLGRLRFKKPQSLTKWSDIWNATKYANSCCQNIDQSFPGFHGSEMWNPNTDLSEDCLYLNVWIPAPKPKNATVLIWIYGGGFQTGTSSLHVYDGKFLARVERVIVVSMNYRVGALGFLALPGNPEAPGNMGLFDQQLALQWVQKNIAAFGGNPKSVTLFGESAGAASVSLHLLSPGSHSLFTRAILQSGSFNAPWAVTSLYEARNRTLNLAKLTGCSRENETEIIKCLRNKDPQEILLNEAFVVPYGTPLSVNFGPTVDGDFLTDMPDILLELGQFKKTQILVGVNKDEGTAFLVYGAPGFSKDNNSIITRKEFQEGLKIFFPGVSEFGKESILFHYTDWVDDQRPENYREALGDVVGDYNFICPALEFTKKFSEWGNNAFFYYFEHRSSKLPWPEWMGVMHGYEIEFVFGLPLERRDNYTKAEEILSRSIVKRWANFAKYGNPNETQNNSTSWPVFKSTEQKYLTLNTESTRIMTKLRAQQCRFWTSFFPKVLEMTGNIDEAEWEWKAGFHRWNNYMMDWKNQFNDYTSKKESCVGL

Compound	IC50 (hAChE) [µM]	IC50 (hBuChE) [µM]	activity at 10 µM [1] [%]	viability at 10 µM [2] [%]	activity at 10 µM (A549 (lung carcinoma)) [%]	activity at 10 µM [3] [%]	activity at 10 µM [4] [%]	activity at 10 µM [5] [%]	activity at 10 µM [6] [%]	activity at 10 µM [7] [%]	activity at 10 µM (SAOS-2 (osteosarcoma)) [%]	activity at 10 µM [8] [%]	SI for hAChE (hAChE)	Papp (in vitro) [×10⁻⁶ cm/s]
COC1C=CC23c4cc5c(cc4CN(CC2OC(C)=O)C3C1)OCO5 (centres unmarked) [Compound 1a, 11-O-Acetylhaemanthamine]	> 500	> 500	100 ± 13	106 ± 9	95 ± 9	97 ± 10	114 ± 4	107 ± 17	83 ± 6	97 ± 19	88 ± 6	113 ± 12		
CCC(=O)OC1CN2Cc3cc4c(cc3C13C=CC(OC)CC23)OCO4 (centres unmarked) [Compound 1b, 11-O-Propionylhaemanthamine]	> 500	437 ± 38	104 ± 3	97 ± 8	84 ± 3	79 ± 15	70 ± 13	104 ± 3	69 ± 11	85 ± 7	96 ± 16	102 ± 13	< 0.9	
COC1C=CC23c4cc5c(cc4CN(CC2OC(=O)C(C)C)C3C1)OCO5 (centres unmarked) [Compound 1c, 11-O-Isobutanoylhaemanthamine]	> 500	203 ± 8	110 ± 3	99 ± 8	84 ± 3	82 ± 17	85 ± 13	123 ± 9	74 ± 8	103 ± 7	85 ± 15	95 ± 7	< 0.4	
CCCCC(=O)OC1CN2Cc3cc4c(cc3C13C=CC(OC)CC23)OCO4 (centres unmarked) [Compound 1d, 11-O-Pentanoylhaemanthamine]	> 500	> 500	92 ± 1	96 ± 1	99 ± 7	94 ± 4	88 ± 3	99 ± 2	93 ± 6	93 ± 5	88 ± 6	89 ± 3		
CCCCCC(=O)OC1CN2Cc3cc4c(cc3C13C=CC(OC)CC23)OCO4 (centres unmarked) [Compound 1e, 11-O-Hexanoylhaemanthamine]	> 500	273 ± 18	100 ± 7	97 ± 3	105 ± 9	100 ± 3	96 ± 4	106 ± 5	98 ± 3	95 ± 4	96 ± 8	96 ± 4	< 0.5	
CCCC(=O)OC1CN2Cc3cc4c(cc3C13C=CC(OC)CC23)OCO4 (centres unmarked) [Compound 1f, 11-O-Butanoylhaemanthamine]	> 500	140 ± 21	90 ± 12	101 ± 18	106 ± 12	101 ± 3	99 ± 6	104 ± 8	88 ± 3	96 ± 13	104 ± 7	87 ± 14	< 0.3	
COC1C=CC23c4cc5c(cc4CN(CC2OC(=O)c2cccc(Cl)c2)C3C1)OCO5 (centres unmarked) [Compound 1h, 11-O-(3-Chlorobenzoyl)haemanthamine]	85.1 ± 6.4	80.2 ± 10.2											0.9	
COC1C=CC23c4cc5c(cc4CN(CC2OC(=O)c2cccc(Br)c2)C3C1)OCO5 (centres unmarked) [Compound 1i, 11-O-(3-Bromobenzoyl)haemanthamine]	112 ± 21	129 ± 25	133 ± 10	115 ± 15	122 ± 5	120 ± 4	108 ± 2	162 ± 9	93 ± 5	105 ± 4	97 ± 10	105 ± 3	1.1	
COc1cccc(C(=O)OC2CN3Cc4cc5c(cc4C24C=CC(OC)CC34)OCO5)c1 (centres unmarked) [Compound 1k, 11-O-(3-Methoxybenzoyl)haemanthamine]	180 ± 17	75.5 ± 12.5	83 ± 1	94 ± 18	102 ± 5	93 ± 3	88 ± 5	108 ± 7	84 ± 12	100 ± 2	89 ± 15	92 ± 1	0.4	
COc1cccc2c1C(=O)c1c(O)c3c(c(O)c1C2=O)C[C@@](O)(C(=O)CO)C[C@@H]3O[C@H]1C[C@H](N)[C@H](O)[C@H](C)O1 [DOX, Doxorubicin, reference compound]			0	0	66 ± 16	77 ± 12	59 ± 9	5 ± 1	7 ± 10	41 ± 7	73 ± 8	40 ± 4		
CN(C)CCCN1c2ccccc2Sc2ccccc21 [Promazine, reference compound]														8.6
